# Measurements from publication PMC11816990, “New Terpenoids and Lignans from Phyllanthus acidus Fruits with Antioxidant Activity” (Foods, 2025).
# Legend:
# [1] = compound from Liriope muscari and Senecio scandens, versus Vitamin C; cited from earlier work
# [2] = ABTS+ radical scavenging test; format: biochemical; conditions: for Inhibition Rate (%): ABTS^+ inhibition, Concentration 250 μM
# Procedure: The ABTS^+ radical scavenging test was conducted as reported previously, and was slightly modified. Specifically, the solvent was replaced with DMSO due to the high volatility of 80% methanol. Trolox was used as positive control. The scavenging activities of phenolic compounds 3, 4, and 10–17 were calculated based on the percentage of ABTS^+ radical scavenged using the equation:Inhibition rate (%) = (A blank − A sample)/A blank
# IC50 values were calculated according to the Reed and Muench method.
# five tumor cell lines = system: five tumor cell lines; design: method as in PMID 17315965; conditions: 40 μM; compound from Aspidopterys obcordate; cited from earlier work
# [3] = design: method as in PMID 22158590; conditions: compound from Cordia sinensis, versus BHA; cited from earlier work
# Hela cells = system: Hela cells; design: method as in doi:10.1016/j.tet.2021.132224; conditions: compounds derived from Phyllanthus acidus; cited from earlier work
# ECA109 = system: ECA109; design: method as in doi:10.1016/j.tetlet.2013.06.082; conditions: compound isolated from Phyllanthus flexuosus; cited from earlier work
# HONE = system: HONE; design: method as in doi:10.1016/j.tet.2021.132224; conditions: compounds derived from Phyllanthus acidus; cited from earlier work
# A549 = system: A549; design: method as in doi:10.1016/j.tet.2021.132224; conditions: compounds derived from Phyllanthus acidus; cited from earlier work
IC50 ([2]; ABTS^+ radical scavenging),"IC50 ([2]; Table S1, ABTS+ inhibition)",Structure (SMILES),Inhibition Rate (%) [2],other results
204 ± 4.7 µM,204 ± 4.66 µM,"COc1cc([C@@H]2OC[C@H]3[C@@H]2CO[C@H]3c2ccc(O)c(OC)c2)ccc1O [Compound 13, (-)-pinoresinol]",60.12 ± 0.19%,antioxidant activities [1]: comparable to that of Vitamin C
–,–,"C=Cc1c(C)c(O)cc2c1CC[C@@H]1C(C)(C)[C@H](O)C(=O)C[C@@]21C [Compound 5, aspidoptoid D]",–,cytotoxic activity against five tumor cell lines (five tumor cell lines): no significant cytotoxic activity
232.9 ± 1.9 µM,233 ± 1.92 µM,"O=C(O)/C=C/c1ccc(O)c(O)c1 [Compound 15, trans-caffeic acid]",49.40 ± 0.72%,DPPH radical scavenging activity [3]: better DPPH radical scavenging activity than BHA
348 ± 12.2 µM,348 ± 12.2 µM,"COc1cc([C@H]2Oc3c(OC)cc(CCCOC(C)=O)cc3[C@@H]2CO)ccc1O [Compound 10, 3-[(2S,3R)-2-(4-hydroxy-3-methoxyphenyl)-3-(hydroxymethyl)-7-methoxy-2,3-dihydro-1-benzofuran-5-yl]propyl acetate]",46.46 ± 0.83%,–
–,–,"COc1cc(CCCOC(C)=O)cc2c1O[C@@H](c1ccc(O)cc1)[C@@H]2CO [Compound 3, 3-[(2R,3S)-2-(4-hydroxyphenyl)-3-(hydroxymethyl)-7-methoxy-2,3-dihydro-1-benzofuran-5-yl]propyl acetate]",31.16 ± 0.38%,–
387 ± 8 µM,387 ± 8.03 µM,"COc1cc([C@H]2OC[C@@H]3[C@H]2CO[C@H]3c2ccc(O)c(OC)c2)ccc1O [Compound 12, (+) epipinoresinol]",49.51 ± 1.60%,–
–,–,"C=Cc1c(C)c(O)cc2c1CC[C@@H]1C(C)(C)[C@H](O)[C@H](O)C[C@@]21C [Compound 6, cleistanthol]",–,cytotoxic activity against Hela cells (Hela cells): weaker cytotoxic activity; cytotoxic activity against ECA109 (ECA109): weak cytotoxic activity; cytotoxic activity against HONE (HONE): weaker cytotoxic activity; cytotoxic activity against A549 (A549): weaker cytotoxic activity
176 ± 2.1 µM,176 ± 2.07 µM,"Cc1c(C)c2c(c(C)c1O)CCC(C)(C(=O)O)O2 (stereo not drawn) [Trolox, reference compound]",57.26 ± 1.38%,–
–,–,"C=Cc1c(C)c(O)cc2c1CC[C@@H]1C(C)(C)[C@H](O)CC[C@@]21C [Compound 7, spruceanol]",–,cytotoxic activity against Hela cells (Hela cells): weaker cytotoxic activity; cytotoxic activity against HONE (HONE): weaker cytotoxic activity; cytotoxic activity against A549 (A549): weaker cytotoxic activity
–,–,"CC(=O)OCCCc1ccc2c(c1)[C@H](CO)[C@@H](c1ccc(O)cc1)O2 [Compound 4, 3-[(2S,3R)-2-(4-hydroxyphenyl)-3-(hydroxymethyl)-2,3-dihydro-1-benzofuran-5-yl] propyl acetate]",23.71 ± 0.37%,–
362 ± 8.4 µM,362 ± 8.39 µM,"COc1cc(C(O)C(CO)Oc2ccc(CCCOC3OC(CO)C(O)C(O)C3O)cc2OC)ccc1O [Compound 14, 4,7,9-trihydroxy-3,3′-dimethoxy-8-O-4′-neolignan-9′-O-β-D-glucopyranoside]",39.02 ± 1.35%,–
